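Cultured in 96-well plates, cells were exposed to test compound for 48 hours across five concentrations. Abbreviation: GI50, concentration required for 50% inhibition of growth. TGI: concentration producing complete growth inhibition.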
Experiments:
Assay in all cases: NCI tumour cell line growth inhibition, 48 h; in the data active = GI50 below about 0.43 µM; inactive = the rest
M14 melanoma = system: M14 melanoma
SK-OV-3 ovarian = system: SK-OV-3 ovarian
CAKI-1 renal = system: CAKI-1 renal
KM12 colon = system: KM12 colon
HT29 colon = system: HT29 colon
HOP-62 NSCLC = system: HOP-62 NSCLC
HS 578T breast = system: HS 578T breast
HCT-116 colon = system: HCT-116 colon
786-0 renal = system: 786-0 renal
SR leukemia = system: SR leukemia
PC-3 prostate = system: PC-3 prostate
SK-MEL-28 melanoma = system: SK-MEL-28 melanoma
MALME-3M melanoma = system: MALME-3M melanoma
U251 CNS = system: U251 CNS
SF-539 CNS = system: SF-539 CNS
MDA-MB-231 breast = system: MDA-MB-231 breast
TK-10 renal = system: TK-10 renal
A498 renal = system: A498 renal
SK-MEL-5 melanoma = system: SK-MEL-5 melanoma
RXF 393 renal = system: RXF 393 renal
NCI-H23 lung = system: NCI-H23 lung
COLO 205 colon = system: COLO 205 colon
BT-549 breast = system: BT-549 breast
UO-31 renal = system: UO-31 renal
HL-60(TB) leukemia = system: HL-60(TB) leukemia
SNB-75 CNS = system: SNB-75 CNS
ACHN renal = system: ACHN renal
K-562 leukemia = system: K-562 leukemia
UACC-257 melanoma = system: UACC-257 melanoma
DU-145 prostate = system: DU-145 prostate
SK-MEL-2 melanoma = system: SK-MEL-2 melanoma
OVCAR-8 ovarian = system: OVCAR-8 ovarian
SN12C renal = system: SN12C renal
MDA-MB-435 = system: MDA-MB-435
NCI-H460 lung = system: NCI-H460 lung
A549 NSCLC = system: A549 NSCLC
SF-268 CNS = system: SF-268 CNS
NCI/ADR-RES ovarian = system: NCI/ADR-RES ovarian
OVCAR-3 ovarian = system: OVCAR-3 ovarian
SF-295 CNS = system: SF-295 CNS
RPMI-8226 leukemia = system: RPMI-8226 leukemia
MOLT-4 leukemia = system: MOLT-4 leukemia
OVCAR-4 ovarian = system: OVCAR-4 ovarian
SW-620 colon = system: SW-620 colon
MCF7 breast = system: MCF7 breast
LOX IMVI melanoma = system: LOX IMVI melanoma
HCT-15 colon = system: HCT-15 colon
CCRF-CEM leukemia = system: CCRF-CEM leukemia
SNB-19 CNS = system: SNB-19 CNS
EKVX NSCLC = system: EKVX NSCLC
NCI-H226 lung = system: NCI-H226 lung
T-47D breast = system: T-47D breast
OVCAR-5 ovarian = system: OVCAR-5 ovarian
HCC-2998 colon = system: HCC-2998 colon
UACC-62 melanoma = system: UACC-62 melanoma
HOP-92 NSCLC = system: HOP-92 NSCLC

COc1cc(C=NCC(=O)CSC(c2ccccc2)c2ccccc2)cc(OC)c1OC
24.4 µM: TGI (SK-MEL-5 melanoma)
53.7 µM: TGI (T-47D breast)
57.3 µM: TGI (HCC-2998 colon)
76 µM: TGI (SK-OV-3 ovarian)
38 µM: TGI (A498 renal)
96.4 µM: TGI (RXF 393 renal)
83.6 µM: TGI (HT29 colon)
80.2 µM: TGI (MDA-MB-435)
93.9 µM: TGI (BT-549 breast)
26.8 µM: TGI (HL-60(TB) leukemia)
79.1 µM: TGI (TK-10 renal)
58.2 µM: TGI (SF-295 CNS)
39.9 µM: TGI (RPMI-8226 leukemia)
> 100 µM: TGI (M14 melanoma) | TGI (CAKI-1 renal) | TGI (HOP-62 NSCLC) | TGI (HCT-116 colon) | TGI (786-0 renal) | TGI (SR leukemia) | TGI (PC-3 prostate) | TGI (SK-MEL-28 melanoma) | TGI (U251 CNS) | TGI (SF-539 CNS) | TGI (MDA-MB-231 breast) | TGI (NCI-H23 lung) | TGI (UO-31 renal) | TGI (SNB-75 CNS) | TGI (ACHN renal) | TGI (DU-145 prostate) | TGI (OVCAR-8 ovarian) | TGI (SN12C renal) | TGI (NCI-H460 lung) | TGI (A549 NSCLC) | TGI (SF-268 CNS) | TGI (NCI/ADR-RES ovarian) | TGI (OVCAR-3 ovarian) | TGI (SW-620 colon) | TGI (MCF7 breast) | TGI (LOX IMVI melanoma) | TGI (HCT-15 colon) | TGI (CCRF-CEM leukemia) | TGI (SNB-19 CNS) | TGI (EKVX NSCLC) | TGI (NCI-H226 lung) | TGI (OVCAR-5 ovarian) | TGI (UACC-62 melanoma) | TGI (HOP-92 NSCLC)
33 µM: TGI (COLO 205 colon)
59.4 µM: TGI (HS 578T breast)
60.5 µM: TGI (UACC-257 melanoma)
inactive: GI50 (M14 melanoma) 27 µM | GI50 (SK-OV-3 ovarian) 23.3 µM | GI50 (CAKI-1 renal) 25.2 µM | GI50 (KM12 colon) 25.3 µM | GI50 (HT29 colon) 8 µM | GI50 (HOP-62 NSCLC) 33.2 µM | GI50 (HS 578T breast) 19 µM | GI50 (HCT-116 colon) 14.1 µM | GI50 (786-0 renal) 24.6 µM | GI50 (SR leukemia) 14 µM | GI50 (PC-3 prostate) 9.09 µM | GI50 (SK-MEL-28 melanoma) 23.8 µM | GI50 (MALME-3M melanoma) 16.8 µM | GI50 (U251 CNS) 32.2 µM | GI50 (SF-539 CNS) 33.1 µM | GI50 (MDA-MB-231 breast) 18.1 µM | GI50 (TK-10 renal) 14.5 µM | GI50 (A498 renal) 5.98 µM | GI50 (SK-MEL-5 melanoma) 11.8 µM | GI50 (RXF 393 renal) 23.7 µM | GI50 (NCI-H23 lung) 26 µM | GI50 (COLO 205 colon) 4.96 µM | GI50 (BT-549 breast) 26.5 µM | GI50 (UO-31 renal) 22.6 µM | GI50 (HL-60(TB) leukemia) 8.01 µM | GI50 (SNB-75 CNS) 25.5 µM | GI50 (ACHN renal) 26.4 µM | GI50 (K-562 leukemia) 8.63 µM | GI50 (UACC-257 melanoma) 13.9 µM | GI50 (DU-145 prostate) 40.8 µM | GI50 (SK-MEL-2 melanoma) 19.6 µM | GI50 (OVCAR-8 ovarian) 19.2 µM | GI50 (SN12C renal) 25.8 µM | GI50 (MDA-MB-435) 25.1 µM | GI50 (NCI-H460 lung) 13 µM | GI50 (A549 NSCLC) 7.7 µM | GI50 (SF-268 CNS) 34.6 µM | GI50 (NCI/ADR-RES ovarian) 7.36 µM | GI50 (OVCAR-3 ovarian) 13.3 µM | GI50 (SF-295 CNS) 11.5 µM | GI50 (RPMI-8226 leukemia) 5.18 µM | GI50 (MOLT-4 leukemia) 6.96 µM | GI50 (OVCAR-4 ovarian) 5.18 µM | GI50 (SW-620 colon) 32.7 µM | GI50 (MCF7 breast) 19.8 µM | GI50 (LOX IMVI melanoma) 23.1 µM | GI50 (HCT-15 colon) 21.5 µM | GI50 (CCRF-CEM leukemia) 5.41 µM | GI50 (SNB-19 CNS) 30 µM | GI50 (EKVX NSCLC) 27.8 µM | GI50 (NCI-H226 lung) 17.9 µM | GI50 (T-47D breast) 4.48 µM | GI50 (OVCAR-5 ovarian) 63.5 µM | GI50 (HCC-2998 colon) 23 µM | GI50 (UACC-62 melanoma) 19.2 µM | GI50 (HOP-92 NSCLC) 8.59 µM
61.7 µM: TGI (MALME-3M melanoma)
50 µM: TGI (SK-MEL-2 melanoma)
93.7 µM: TGI (K-562 leukemia)
89.9 µM: TGI (MOLT-4 leukemia)
64.4 µM: TGI (OVCAR-4 ovarian)
82.1 µM: TGI (KM12 colon)
